What follows are compounds tested on MV4-11 cells (assay: MV4-11 Cytotoxicity Assay). Settings: Homo sapiens, MV4-11; 72 hr, CCK-8; read-out: MV4-11 cytotoxicity.
Type: cell-based, human
`Cc1sc2c(c1C)C(c1ccc(Cl)cc1)=N[C@@H](CC(=O)NCC(=O)NCCOCCOc1ccc(-n3c(O)nnc3-c3cc(C(C)C)c(O)cc3O)cc1)c1nnc(C)n1-2` [Compound 55, (S)-2-(4-(4-chlorophenyl)-2,3,9-trimethyl-6H-thieno[3,2-f][1,2,4]triazolo[4,3-a][1,4]diazepin-6-yl)-N-(2-((2-(2-(4-(3-(2,4-dihydroxy-5-isopropylphenyl)-5-hydroxy-4H-1,2,4-triazol-4-yl)phenoxy)ethoxy)ethyl)amino)-2-oxoethyl)acetamide] was tested, and the IC50 was 100 to 1000 nM.
For `CCc1cc(-c2nnc(O)n2-c2ccc(CNC(=O)C[C@@H]3N=C(c4ccc(Cl)cc4)c4c(sc(C)c4C)-n4c(C)nnc43)cc2)c(O)cc1O` [Compound 56, 2-((6S)-4-(4-chlorophenyl)-2,3,9-trimethyl-6H-thieno[3,2-f][1,2,4]triazolo[4,3-a][1,4]diazepin-6-yl)-N-(4-(3-(5-ethyl-2,4-dihydroxyphenyl)-5-hydroxy-4H-1,2,4-triazol-4-yl)benzyl)acetamide], the IC50 was 100 to 1000 nM.
With `Cc1sc2c(c1C)C(c1ccc(Cl)cc1)=N[C@@H](CC(=O)NCC(=O)NCc1ccc(-n3c(O)nnc3-c3cc(C(C)C)c(O)cc3O)cc1)c1nnc(C)n1-2` [Compound 57, 2-((6S)-4-(4-chlorophenyl)-2,3,9-trimethyl-6H-thieno[3,2-f][1,2,4]triazolo[4,3-a][1,4]diazepin-6-yl)-N-(2-((4-(3-(2,4-dihydroxy-5-isopropylphenyl)-5-hydroxy-4H-1,2,4-triazol-4-yl)benzyl)amino)-2-oxoethyl)acetamide] the IC50 was 100 to 1000 nM.
In the case of `Cc1sc2c(c1C)C(c1ccc(Cl)cc1)=N[C@@H](CC(=O)NCC1CN(C(=O)C3CCN(Cc4ccc(-n5c(O)nnc5-c5cc(C(C)C)c(O)cc5O)cc4)CC3)C1)c1nnc(C)n1-2` [Compound 59, 2-((6S)-4-(4-chlorophenyl)-2,3,9-trimethyl-6H-thieno[3,2-f][1,2,4]triazolo[4,3-a][1,4]diazepin-6-yl)-N-((1-(1-(4-(3-(2,4-dihydroxy-5-isopropylphenyl)-5-hydroxy-4H-1,2,4-triazol-4-yl)benzyl)piperidine-4-carbonyl)azetidin-3-yl)methyl)acetamide, trifluoroacetic acid], the IC50 is reported as < 100 nM.
For `Cc1sc2c(c1C)C(c1ccc(Cl)cc1)=N[C@@H](CC(=O)NCC(=O)NCC1CN(C(=O)C3CCN(Cc4ccc(-n5c(O)nnc5-c5cc(C(C)C)c(O)cc5O)cc4)CC3)C1)c1nnc(C)n1-2` [Compound 60, 2-((6S)-4-(4-chlorophenyl)-2,3,9-trimethyl-6H-thieno[3,2-f][1,2,4]triazolo[4,3-a][1,4]diazepin-6-yl)-N-(2-(((1-(1-(4-(3-(2,4-dihydroxy-5-isopropylphenyl)-5-hydroxy-4H-1,2,4-triazol-4-yl)benzyl)piperidine-4-carbonyl)azetidin-3-yl)methyl)amino)-2-oxoethyl)acetamide, trifluoroacetic acid], the IC50 was < 100 nM.
For `Cc1sc2c(c1C)C(c1ccc(Cl)cc1)=N[C@@H](CCNCCOc1ccc(-n3c(O)nnc3-c3cc(C(C)C)c(O)cc3O)cc1)c1nnc(C)n1-2` [Compound 62, (S)-4-(4-(4-(2-((2-(4-(4-chlorophenyl)-2,3,9-trimethyl-6H-thieno[3,2-f][1,2,4]triazolo[4,3-a][1,4]diazepin-6-yl)ethyl)amino)ethoxy)phenyl)-5-hydroxy-4H-1,2,4-triazol-3-yl)-6-isopropylbenzene-1,3-diol, trifluoroacetic acid], the IC50 was 100 to 1000 nM.
In the case of `Cc1sc2c(c1C)C(c1ccc(Cl)cc1)=N[C@@H](CCNCCOCCOc1ccc(-n3c(O)nnc3-c3cc(C(C)C)c(O)cc3O)cc1)c1nnc(C)n1-2` [Compound 63, (S)-4-(4-(4-(2-(2-((2-(4-(4-chlorophenyl)-2,3,9-trimethyl-6H-thieno[3,2-f][1,2,4]triazolo[4,3-a][1,4]diazepin-6-yl)ethyl)amino)ethoxy)ethoxy)phenyl)-5-hydroxy-4H-1,2,4-triazol-3-yl)-6-isopropylbenzene-1,3-diol, trifluoroacetic acid], the IC50 is reported as 100 to 1000 nM.
In the case of `Cc1sc2c(c1C)C(c1ccc(Cl)cc1)=N[C@@H](CCNCC1CCN(C(=O)C3CCN(Cc4ccc(-n5c(O)nnc5-c5cc(C(C)C)c(O)cc5O)cc4)CC3)CC1)c1nnc(C)n1-2` [Compound 64, (4-(((2-((6S)-4-(4-chlorophenyl)-2,3,9-trimethyl-6H-thieno[3,2-f][1,2,4]triazolo[4,3-a][1,4]diazepin-6-yl)ethyl)amino)methyl)piperidin-1-yl)(1-(4-(3-(2,4-dihydroxy-5-isopropylphenyl)-5-hydroxy-4H-1,2,4-triazol-4-yl)benzyl)piperidin-4-yl) methanone, trifluoroacetic acid], the IC50 is reported as 100 to 1000 nM.
`Cc1sc2c(c1C)C(c1ccc(Cl)cc1)=N[C@@H](CCN(C)CCOc1ccc(-n3c(O)nnc3-c3cc(C(C)C)c(O)cc3O)cc1)c1nnc(C)n1-2` [Compound 65, (S)-4-(4-(4-(2-((2-(4-(4-chlorophenyl)-2,3,9-trimethyl-6H-thieno[3,2-f][1,2,4]triazolo[4,3-a][1,4]diazepin-6-yl)ethyl)(methyl)amino)ethoxy)phenyl)-5-hydroxy-4H-1,2,4-triazol-3-yl)-6-isopropylbenzene-1,3-diol] was tested, and the IC50 was 100 to 1000 nM.
`Cc1sc2c(c1C)C(c1ccc(Cl)cc1)=N[C@@H](CCNCC1CCN(C(=O)C3CCN(Cc4ccc(-n5c(O)nnc5-c5cc(C(C)C)c(O)cc5O)cc4)CC3)C1)c1nnc(C)n1-2` (stereo partly drawn) [Compound 66, (3-(((2-((6S)-4-(4-chlorophenyl)-2,3,9-trimethyl-6H-thieno[3,2-f][1,2,4]triazolo[4,3-a][1,4]diazepin-6-yl)ethyl)amino)methyl)pyrrolidin-1-yl)(1-(4-(3-(2,4-dihydroxy-5-isopropylphenyl)-5-hydroxy-4H-1,2,4-triazol-4-yl)benzyl)piperidin-4-yl) methanone, trifluoroacetic acid] gave an IC50 of 100 to 1000 nM.
With `CCc1cc(-c2nnc(O)n2-c2ccc(CN3CCC(C(=O)N4CCC(CNCC[C@@H]5N=C(c6ccc(Cl)cc6)c6c(sc(C)c6C)-n6c(C)nnc65)C4)CC3)cc2)c(O)cc1O` (stereo partly drawn) [Compound 67, (3-(((2-((6S)-4-(4-chlorophenyl)-2,3,9-trimethyl-6H-thieno[3,2-f][1,2,4]triazolo[4,3-a][1,4]diazepin-6-yl)ethyl)amino)methyl)pyrrolidin-1-yl)(1-(4-(3-(5-ethyl-2,4-dihydroxyphenyl)-5-hydroxy-4H-1,2,4-triazol-4-yl)benzyl)piperidin-4-yl) methanone, trifluoroacetic acid] the IC50 was 100 to 1000 nM.
`CCc1cc(-c2nnc(O)n2-c2ccc(CN3CCC(C(=O)N4CCC(CNCC[C@@H]5N=C(c6ccc(Cl)cc6)c6c(sc(C)c6C)-n6c(C)nnc65)CC4)CC3)cc2)c(O)cc1O` [Compound 68, (4-(((2-((6S)-4-(4-chlorophenyl)-2,3,9-trimethyl-6H-thieno[3,2-f][1,2,4]triazolo[4,3-a][1,4]diazepin-6-yl)ethyl)amino)methyl)piperidin-1-yl)(1-(4-(3-(5-ethyl-2,4-dihydroxyphenyl)-5-hydroxy-4H-1,2,4-triazol-4-yl)benzyl)piperidin-4-yl) methanone, trifluoroacetic acid] was tested, and the IC50 was 100 to 1000 nM.
For `Cc1sc2c(c1C)C(c1ccc(Cl)cc1)=N[C@@H](CCN(C)CCOCCOc1ccc(-n3c(O)nnc3-c3cc(C(C)C)c(O)cc3O)cc1)c1nnc(C)n1-2` [Compound 71, (S)-4-(4-(4-(2-(2-((2-(4-(4-chlorophenyl)-2,3,9-trimethyl-6H-thieno[3,2-f][1,2,4]triazolo[4,3-a][1,4]diazepin-6-yl)ethyl)(methyl)amino)ethoxy)ethoxy)phenyl)-5-hydroxy-4H-1,2,4-triazol-3-yl)-6-isopropylbenzene-1,3-diol, trifluoroacetic acid], the IC50 was 100 to 1000 nM.
In the case of `Cc1sc2c(c1C)C(c1ccc(Cl)cc1)=N[C@@H](CC(=O)Nc1ccc(NC(=O)C3CCN(Cc4ccc(-n5c(O)nnc5-c5cc(C(C)C)c(O)cc5O)cc4)CC3)cc1)c1nnc(C)n1-2` [Compound 72, N-(4-(2-((6S)-4-(4-chlorophenyl)-2,3,9-trimethyl-6H-thieno[3,2-f][1,2,4]triazolo[4,3-a][1,4]diazepin-6-yl)acetamido)phenyl)-1-(4-(3-(2,4-dihydroxy-5-isopropylphenyl)-5-hydroxy-4H-1,2,4-triazol-4-yl)benzyl)piperidine-4-carboxamide, trifluoroacetic acid], the IC50 is reported as < 100 nM.
`CCc1cc(-c2nnc(O)n2-c2ccc(CN3CCC(C(=O)N4CCC(CNC(=O)C[C@@H]5N=C(c6ccc(Cl)cc6)c6c(sc(C)c6C)-n6c(C)nnc65)C4)CC3)cc2)c(O)cc1O` (stereo partly drawn) [Compound 77, 2-((6S)-4-(4-chlorophenyl)-2,3,9-trimethyl-6H-thieno[3,2-f][1,2,4]triazolo[4,3-a][1,4]diazepin-6-yl)-N-((1-(1-(4-(3-(5-ethyl-2,4-dihydroxyphenyl)-5-hydroxy-4H-1,2,4-triazol-4-yl)benzyl)piperidine-4-carbonyl)pyrrolidin-3-yl)methyl)acetamide, trifluoroacetic acid] showed an IC50 of 100 to 1000 nM.
With `Cc1sc2c(c1C)C(c1ccc(Cl)cc1)=N[C@@H](CC(=O)N1CCN(c3ccc(-n4c(O)nnc4-c4cc(C(C)C)c(O)cc4O)cc3)CC1)c1nnc(C)n1-2` [Compound 79, (S)-2-(4-(4-chlorophenyl)-2,3,9-trimethyl-6H-thieno[3,2-f][1,2,4]triazolo[4,3-a][1,4]diazepin-6-yl)-1-(4-(4-(3-(2,4-dihydroxy-5-isopropylphenyl)-5-hydroxy-4H-1,2,4-triazol-4-yl)phenyl)piperazin-1-yl)ethan-1-one] the IC50 was < 100 nM.
For `Cc1sc2c(c1C)C(c1ccc(Cl)cc1)=N[C@@H](CC(=O)N1CCC(CCN3CCC(Cc4ccc(-n5c(O)nnc5-c5cc(C(C)C)c(O)cc5O)cc4)CC3)CC1)c1nnc(C)n1-2` [Compound 80, (S)-2-(4-(4-chlorophenyl)-2,3,9-trimethyl-6H-thieno[3,2-f][1,2,4]triazolo[4,3-a][1,4]diazepin-6-yl)-1-(4-(2-(4-(4-(3-(2,4-dihydroxy-5-isopropylphenyl)-5-hydroxy-4H-1,2,4-triazol-4-yl)benzyl)piperidin-1-yl)ethyl)piperidin-1-yl)ethan-1-one, trifluoroacetic acid], the IC50 was < 100 nM.
